Results from PubChem BioAssay (NCI).
Several values for one entry are separate records, joined by “and”; a condition that tells them apart may be missing. Equal values may be shown once.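 Values below derive from 48-hour exposures of cells grown in 96-well plates, with endpoints linearly interpolated between the two concentrations bracketing the appropriate inhibition level. Here, GI50 denotes the concentration required for 50% inhibition of growth. TGI denotes the concentration required for complete inhibition of growth.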

Assays:
Assay in all cases: DTP human tumour cell line panel, 48 h
CCRF-CEM leukemia = test system: CCRF-CEM leukemia
HCC-2998 colon = test system: HCC-2998 colon
HOP-92 NSCLC = test system: HOP-92 NSCLC
MDA-MB-231 breast = test system: MDA-MB-231 breast
OVCAR-5 ovarian = test system: OVCAR-5 ovarian
OVCAR-8 ovarian = test system: OVCAR-8 ovarian
PC-3 prostate = test system: PC-3 prostate
SF-268 CNS = test system: SF-268 CNS
SK-MEL-5 melanoma = test system: SK-MEL-5 melanoma
SNB-19 CNS = test system: SNB-19 CNS

Row | SMILES | GI50 (CCRF-CEM leukemia) | TGI (CCRF-CEM leukemia) | GI50 (HCC-2998 colon) | TGI (HCC-2998 colon) | GI50 (HOP-92 NSCLC) | TGI (HOP-92 NSCLC) | GI50 (MDA-MB-231 breast) | TGI (MDA-MB-231 breast) | GI50 (OVCAR-5 ovarian) | TGI (OVCAR-5 ovarian) | GI50 (OVCAR-8 ovarian) | TGI (OVCAR-8 ovarian) | GI50 (PC-3 prostate) | TGI (PC-3 prostate) | GI50 (SF-268 CNS) | TGI (SF-268 CNS) | GI50 (SK-MEL-5 melanoma) | TGI (SK-MEL-5 melanoma) | GI50 (SNB-19 CNS) | TGI (SNB-19 CNS)
1 | O=C(Nc1cccc(-n2cc(-c3ccncc3)c(-c3ccc(O)c(Cl)c3)n2)c1)c1ccc(N2CCOCC2)c(C(F)(F)F)c1 | 1.34 µM | > 50 µM | 3.44 µM | > 50 µM | 0.994 µM | 3.81 µM | 0.857 µM | 3.09 µM | > 50 µM | > 50 µM | 2.24 µM | > 50 µM | 2.39 µM | > 50 µM | > 50 µM | > 50 µM | 1.75 µM | > 50 µM | > 50 µM | > 50 µM
2 | CN1CCN(CCCN2c3ccccc3Sc3ccc(C(F)(F)F)cc32)CC1 | 2.35 µM and 2.17 µM and 8.25 µM | 6 µM and 6.52 µM and 26.5 µM | 1.42 µM and 1.64 µM and 3.82 µM | 3.02 µM and 3.21 µM and 8.68 µM | 1.07 µM and 2.26 µM and 7.54 µM | 4.35 µM and 10.4 µM and 20.5 µM | 1.75 µM and 6.11 µM and 1.7 µM | 3.87 µM and 19.9 µM and 5.08 µM | 1.99 µM | 4.28 µM and 24.9 µM and 23.2 µM | 1.7 µM | 3.36 µM and 33.4 µM and 30.5 µM | 2.31 µM | 8.42 µM and 16.8 µM and 17.5 µM | 3.72 µM | 14.3 µM and 25.4 µM and 26.2 µM | 1.65 µM | 3.04 µM and 4.34 µM and 6.17 µM | 1.86 µM | 4.45 µM and 26.8 µM and 29.3 µM
3 | COc1cc([N+](=O)[O-])c(OC)cc1-c1nc2n(c1/C(N)=N/C(=N)N)CCS2 | > 100 µM | > 100 µM | > 100 µM | > 100 µM | 41.9 µM | > 100 µM | 27 µM | > 100 µM | > 100 µM | > 100 µM | 17.5 µM | > 100 µM | > 100 µM | > 100 µM | 45.8 µM | > 100 µM | 75.3 µM | > 100 µM | 10.2 µM | > 100 µM
4 | O=c1cc(-c2ccccc2)nc2cc(-c3ccco3)[nH]n12 | 16.3 µM | > 100 µM | 13.3 µM | > 100 µM | 10.5 µM | 93.3 µM | 7.84 µM | > 100 µM | 42.2 µM | > 100 µM | 18 µM | > 100 µM | 15 µM | > 100 µM | 14.9 µM | > 100 µM | 6.58 µM | 22.1 µM | 12.6 µM | > 100 µM
5 | CCc1cccc(CC)c1NC(=O)c1ccn2c1CCc1cnc(Nc3ccc(N4CCN(C)CC4)cc3OC)nc1-2 | 0.213 µM | 6.6 µM | 2.28 µM | 8.63 µM | 1.95 µM | 9.66 µM | 2.11 µM | 8.29 µM | 3.51 µM | 22 µM | 2.19 µM | 32.8 µM | 2.5 µM | 16.2 µM | 3.14 µM | 17.8 µM | 1.61 µM | 3.02 µM | 3.57 µM | 15.2 µM
6 | COc1ccc2c(c1)c(-c1nc(-c3cn(C)c4ncccc34)cs1)cn2CCCCN1CCOCC1 | 1.02 µM | 3.23 µM | 1.73 µM | 3.77 µM | 0.922 µM | 3.59 µM | 0.941 µM | 2.49 µM | 1.68 µM | 4.03 µM | 2.3 µM | 5.43 µM | 1.12 µM | 3.26 µM | 1.49 µM | 3.3 µM | 1.67 µM | 3.06 µM | 1.65 µM | 3.49 µM
7 | COc1cc(C(=O)Nc2cc(O)c(C/C=C(\C)CCC=C(C)C)c(O)c2)cc2c1O[C@]1(C)CC[C@@H](O)C(C)(C)[C@H]1C2 | 0.0438 µM and 0.0384 µM | > 22.7 µM | 1.49 µM and 2.13 µM | 16.4 µM | 0.237 µM and 0.173 µM | 8.13 µM and 4.79 µM | 1.01 µM and 0.461 µM | 5.53 µM and 5.34 µM | 2.89 µM and 3.49 µM | 21.6 µM | 4.28 µM and 2.21 µM | 31.4 µM | 0.0302 µM and 0.0463 µM | 17.8 µM | 1.1 µM and 0.741 µM | 15.8 µM | 0.177 µM and 0.631 µM | 2.1 µM and 3.99 µM | 3.28 µM and 1.9 µM | 26.4 µM
8 | Nc1ncnc2c1c(C(=O)NO)cn2C1OC(CO)C(O)C1O (stereo not drawn) | 0.235 µM | > 100 µM | 0.587 µM | 6.83 µM | 0.205 µM | 1.25 µM | 0.464 µM | 5.32 µM | 0.604 µM |  | 0.353 µM | > 100 µM | 0.286 µM | > 41.9 µM | 0.397 µM |  | 0.739 µM | 2.15 µM | 0.847 µM | > 100 µM
9 | Cc1csc(-c2ccc3c(c2)COC3(CCCN(C)C)c2ccc(F)cc2)c1 (stereo not drawn) | 2.21 µM | 5.35 µM | 1.79 µM | 3.3 µM | 1.6 µM | 3.17 µM | 1.79 µM | 3.34 µM | 1.63 µM | 3.05 µM | 2.35 µM | 5.69 µM | 1.81 µM | 3.45 µM | 1.68 µM | 3.26 µM | 1.82 µM | 3.26 µM | 1.75 µM | 3.31 µM
10 | O=C(Nc1ccc(O)c(NS(=O)(=O)c2ccc(F)cc2)c1)c1ccc(-c2ccccc2)cc1 | 2.96 µM | 13 µM | 17.5 µM | 45.3 µM | 2.68 µM | 17.1 µM | 6.15 µM | 20.4 µM | 13.6 µM | 27 µM | 5.32 µM | > 100 µM | 3.84 µM | 16.7 µM | 6.49 µM | 33.2 µM | 6.42 µM | 19.3 µM | 14.4 µM | 34.2 µM
11 | Cc1nc2sc(C(=O)Nc3cccc(Cl)c3C)c(N)c2cc1C(=O)c1ccccc1 | 0.18 µM | > 50 µM | 1.01 µM | > 50 µM | 0.259 µM | > 23.7 µM | 0.463 µM | > 50 µM | 1.26 µM | > 50 µM | 0.403 µM | > 50 µM | 0.258 µM | > 50 µM | 0.375 µM | > 50 µM | 0.278 µM | 6.13 µM | 0.222 µM | > 50 µM
12 | CS(=O)(=O)c1ccc(-c2[nH]c3ccc(F)cc3c2/C=N/NC(N)=S)cc1 | 0.366 µM | 27.2 µM | 2.95 µM | 14.7 µM | 0.574 µM | 52.9 µM | 1.65 µM | > 100 µM | 3.74 µM | > 100 µM | 2.76 µM | > 100 µM | 0.51 µM | 26.8 µM | 2.42 µM | > 100 µM | 0.634 µM | 11.9 µM | 1.31 µM | > 100 µM
